Results on 19 compounds are retold here after ChEMBL document CHEMBL3817822, “Design and synthesis of pyridine-pyrazole-sulfonate derivatives as potential anti-HBV agents” (Medchemcomm, 2016).

A short description of data set [1]: Cytotoxicity against human HepG2(2.2.15) cells assessed as reduction in cell viability after 72 hrs by MTS assay. The note with it: for CC50 at 72 h: HepG2(2.2.15) cells, read-out: TC50; for Activity: hepg2 2.2.15, 72 h. In kind it is cell-based. For orientation: Formazan colour is commonly taken as a measure of viable cells.
Data set [2] deals with Hepatitis B virus. Kind of data set: Antiviral activity against HBV infected in human HepG2(2.2.15) cells assessed as inhibition of HBsAg secretion by enzyme immunoassay. The data set is classed as functional, organism-based.
Data set [3] is described as follows: Selectivity index, ratio of TC50 for human HepG2(2.2.15) cells to IC50 for HBV infected in human HepG2(2.2.15) cells assessed as inhibition of HBsAg secretion.
Data set [4] deals with Hepatitis B virus. The data set is described as follows: Antiviral activity against HBV infected in human HepG2(2.2.15) cells assessed as inhibition of HBeAg secretion by enzyme immunoassay. The data set is classed as functional, organism-based.
Data set [5] in a line: Selectivity index, ratio of TC50 for human HepG2(2.2.15) cells to IC50 for HBV infected in human HepG2(2.2.15) cells assessed as inhibition of HBeAg secretion.
Data set [6] deals with Hepatitis B virus. Kind of data set: Antiviral activity against HBV infected in human HepG2(2.2.15) cells assessed as inhibition of viral DNA replication after 48 hrs by SYBR Green based RT-PCR method. The data set is classed as functional, organism-based. Conditions: HepG2 2.2.15, 48 h.
Data set [7] can be described thus: Selectivity index, ratio of TC50 for human HepG2(2.2.15) cells to IC50 for HBV infected in human HepG2(2.2.15) cells assessed as inhibition of viral DNA replication.

Broadly, the IC50 is the point on the concentration scale where inhibition reaches its midpoint. On to `COc1ccc(S(=O)(=O)Oc2cc(-c3ccccn3)[nH]n2)cc1`, for which the CC50 at 72 h in data set [1] came out at 87.5 µM. Also, the Activity entry in data set [1] is reported as “Dose-dependent effect”. For the same compound, the IC50 amounted to 15.4 µM in the data set on Hepatitis B virus [2], 23.1 µM in the data set on Hepatitis B virus [4] and 22.2 µM in the data set with Hepatitis B virus [6]. In addition, the entries for the “Selectivity Index” value in data set [3], in data set [5] and in data set [7] were 5.69, 3.79 and 3.95, respectively.
For `COc1ccc(S(=O)(=O)Oc2cc(CSc3ccccn3)[nH]n2)cc1`, the CC50 at 72 h in data set [1] amounted to 90.2 µM. In addition, in data set [1], the Activity result was “Dose-dependent effect”. Also, the figures for the IC50 in the data set on Hepatitis B virus [2], with Hepatitis B virus [4] and with Hepatitis B virus [6] were 14.5 µM, 44.6 µM and 38.1 µM, respectively. Also, the “Selectivity Index” value in data set [3] is reported as 6.21; in data set [5], 2.02; in data set [7], 2.37.
On to `Nc1ccn([C@H]2CS[C@@H](CO)O2)c(=O)n1`, for which, in data set [1], the CC50 at 72 h amounted to 352 µM. Moreover, the IC50 in the data set with Hepatitis B virus [6] was 2.09 µM.
Turning to `O=S(=O)(Oc1cc(CSc2ccccn2)[nH]n1)c1ccccc1`, in data set [1], the CC50 at 72 h worked out at 103 µM. The Activity result in data set [1] is reported as “Dose-dependent effect”. For the same compound, the IC50 amounted to 152 µM in the data set on Hepatitis B virus [2], 20.3 µM in the data set with Hepatitis B virus [4] and 18.9 µM in the data set on Hepatitis B virus [6]. The “Selectivity Index” value in data set [3] is 0.68; in data set [5], 5.09; in data set [7], 5.46.
In the case of `O=S(=O)(Oc1cc(CSc2ccccn2)[nH]n1)c1ccc(F)cc1`, the CC50 at 72 h in data set [1] turned out to be 116 µM. In addition, the Activity entry in data set [1] is “Dose-dependent effect”. The IC50 with Hepatitis B virus [2] amounted to 26.2 µM; in the data set with Hepatitis B virus [4], 250 µM; in the data set with Hepatitis B virus [6], 197 µM. For the same compound, the “Selectivity Index” value in data set [3] is 4.44; in data set [5], 0.46; in data set [7], 0.59.
Consider `O=[N+]([O-])c1ccc(S(=O)(=O)Oc2cc(CSc3ccccn3)[nH]n2)cc1`, for which the CC50 at 72 h in data set [1] stood at 38.2 µM. In addition, in data set [1], the Activity result is “Dose-dependent effect”. Further, the IC50 in the data set on Hepatitis B virus [2] was 4.8 µM; with Hepatitis B virus [4], 5.97 µM; with Hepatitis B virus [6], 5.56 µM. Further, the “Selectivity Index” value is 7.97 in data set [3], 6.41 in data set [5] and 6.88 in data set [7].
Consider `O=[N+]([O-])c1ccccc1S(=O)(=O)Oc1cc(CSc2ccccn2)[nH]n1`, for which, in data set [1], the CC50 at 72 h was 66.2 µM. The Activity entry in data set [1] is “Dose-dependent effect”. Further, the half-maximal inhibitory concentration (IC50) worked out at 6.25 µM in the data set with Hepatitis B virus [2], 9.92 µM in the data set with Hepatitis B virus [4] and 6.3 µM in the data set on Hepatitis B virus [6]. The figures for the “Selectivity Index” value in data set [3], in data set [5] and in data set [7] were 10.6, 6.68 and 10.51, respectively.
Regarding `CS(=O)(=O)Oc1cc(-c2ccccn2)[nH]n1`, in data set [1], the CC50 at 72 h stood at 1060 µM and the Activity entry is on record as “Dose-dependent effect”. Further, the IC50 in the data set on Hepatitis B virus [2] is 287 µM. In data set [3], the “Selectivity Index” value stood at 3.68.
As for `O=c1cc(CSc2ccccn2)[nH][nH]1`, the CC50 at 72 h in data set [1] is 1120 µM. Also, in data set [1], the Activity entry was “Dose-dependent effect”. The figures for the IC50 in the data set with Hepatitis B virus [2], with Hepatitis B virus [4] and in the data set with Hepatitis B virus [6] were 815 µM, 590 µM and 524 µM, respectively. Further, the results for the “Selectivity Index” value in data set [3], in data set [5] and in data set [7] were 1.37, 1.89 and 2.13, respectively.
As to `Cc1ccc(S(=O)(=O)Oc2cc(CSc3ccccn3)[nH]n2)cc1`, the CC50 at 72 h in data set [1] came to 86.4 µM. Further, the Activity entry in data set [1] was “Dose-dependent effect”. Besides, the IC50 with Hepatitis B virus [2] was determined as 19.8 µM; in the data set with Hepatitis B virus [4] it was 19.4 µM; in the data set on Hepatitis B virus [6], 14.3 µM. The “Selectivity Index” value in data set [3] is listed as 4.36; in data set [5], 4.45; in data set [7], 6.04.
Turning to `O=S(=O)(Oc1cc(-c2ccccn2)[nH]n1)c1ccccc1`, the CC50 at 72 h in data set [1] turned out to be 135 µM. Also, the Activity result in data set [1] was “Dose-dependent effect”. Further, the figures for the IC50 in the data set with Hepatitis B virus [2], in the data set on Hepatitis B virus [4] and in the data set on Hepatitis B virus [6] were 137 µM, 69.5 µM and 65.3 µM, respectively. The entries for the “Selectivity Index” value in data set [3], in data set [5] and in data set [7] were 0.99, 1.94 and 2.07, respectively.
`O=c1cc(-c2ccccn2)[nH][nH]1`: in data set [1], the CC50 at 72 h stood at 1060 µM. Further, the Activity entry in data set [1] is “Dose-dependent effect”. The IC50 in the data set on Hepatitis B virus [2] was 1380 µM; in the data set with Hepatitis B virus [4], 1370 µM; in the data set with Hepatitis B virus [6] it was 1350 µM. Moreover, the “Selectivity Index” value in data set [3] amounted to 0.77; in data set [5], 0.78; in data set [7] it was 0.79.
Regarding `O=S(=O)(Oc1cc(-c2ccccn2)[nH]n1)c1ccc(F)cc1`, the CC50 at 72 h in data set [1] worked out at 254 µM. The Activity result in data set [1] was “Dose-dependent effect”. Besides, the IC50 is 45.9 µM in the data set with Hepatitis B virus [2], 82.9 µM in the data set on Hepatitis B virus [4] and 92.1 µM with Hepatitis B virus [6]. For the same compound, the “Selectivity Index” value in data set [3] came out at 5.53; in data set [5] it was 3.06; in data set [7], 2.76.
Regarding `CS(=O)(=O)Oc1cc(CSc2ccccn2)[nH]n1`, in data set [1], the CC50 at 72 h came to 830 µM. The Activity entry in data set [1] is recorded as “Dose-dependent effect”. For the same compound, the results for the IC50 with Hepatitis B virus [2], in the data set with Hepatitis B virus [4] and in the data set on Hepatitis B virus [6] were 161 µM, 679 µM and 739 µM, respectively. Moreover, the “Selectivity Index” value in data set [3] stood at 5.17; in data set [5] it was 1.22; in data set [7], 1.12.
As for `O=S(=O)(Oc1cc(CSc2ccccn2)[nH]n1)c1ccc(Br)cc1`, the CC50 at 72 h in data set [1] turned out to be 52.4 µM. In data set [1], the Activity entry is reported as “Dose-dependent effect”. For the same compound, the IC50 came out at 115 µM in the data set with Hepatitis B virus [2], 9.2 µM in the data set with Hepatitis B virus [4] and 6.07 µM with Hepatitis B virus [6]. Further, the results for the “Selectivity Index” value in data set [3], in data set [5] and in data set [7] were 0.46, 5.69 and 8.63, respectively.
For the compound `O=[N+]([O-])c1ccc(S(=O)(=O)Oc2cc(-c3ccccn3)[nH]n2)cc1`, in data set [1], the CC50 at 72 h is 787 µM and the Activity result is given as “Dose-dependent effect”. Further, the IC50 with Hepatitis B virus [2] turned out to be 125 µM. The “Selectivity Index” value in data set [3] amounted to 6.28.
Turning to `O=[N+]([O-])c1ccccc1S(=O)(=O)Oc1cc(-c2ccccn2)[nH]n1`, the CC50 at 72 h in data set [1] was 326 µM. Moreover, the Activity result in data set [1] is reported as “Dose-dependent effect”. Moreover, the IC50 in the data set with Hepatitis B virus [2] amounted to 7.48 µM; in the data set with Hepatitis B virus [4], 12 µM; in the data set on Hepatitis B virus [6], 9.19 µM. Besides, the figures for the “Selectivity Index” value in data set [3], in data set [5] and in data set [7] were 43.54, 27.11 and 35.46, respectively.
With `O=S(=O)(Oc1cc(-c2ccccn2)[nH]n1)c1ccc(Br)cc1`, in data set [1], the CC50 at 72 h was found to be 809 µM and the Activity entry is given as “Dose-dependent effect”. In the data set with Hepatitis B virus [2], the IC50 was determined as 210 µM. For the same compound, the “Selectivity Index” value in data set [3] came to 3.85.
In the case of `Cc1ccc(S(=O)(=O)Oc2cc(-c3ccccn3)[nH]n2)cc1`, in data set [1], the CC50 at 72 h is 217 µM. In addition, the Activity entry in data set [1] is “Dose-dependent effect”. Further, the IC50 in the data set on Hepatitis B virus [2] is 23.2 µM; with Hepatitis B virus [4], 32.3 µM; with Hepatitis B virus [6], 31.3 µM. The “Selectivity Index” value in data set [3] was 9.35; in data set [5] it was 6.71; in data set [7], 6.92.
